Data on one compound can be found in patent US11254690B2, “PTEFb inhibiting macrocyclic compounds” (BAYER AKTIENGESELLSCHAFT, priority 2017, dated 2022).

By residence time is commonly meant how long the partners stay bound on average. A word on the Kd: it is the free concentration of one partner at which half of the binding sites on the other are occupied at equilibrium, for simple one-to-one binding. One may read the koff as a measure of how fast the partners let go of each other.

The subject of one experiment is NCI-H460 cells. Nature of the experiment: Proliferation assay, NCI-H460. It is filed as cell-based. Particulars: Homo sapiens, NCI-H460, 96 h; 4 days, crystal violet; read-out: Inhibition of NCI-H460 cell proliferation IC50. The protocol: Cultivated tumour cells (HeLa, human cervical tumour cells, ATCC CCL-2; NCI-H460, human non-small cell lung carcinoma cells, ATCC HTB-177; DU 145, hormone-independent human prostate carcinoma cells, ATCC HTB-81; HeLa-MaTu-ADR, multidrug-resistant human cervical carcinoma cells, EPO-GmbH Berlin; Caco-2, human colorectal carcinoma cells, ATCC HTB-37; B16F10, mouse melanoma cells, ATCC CRL-6475) were plated at a density of 5,000 cells/well (DU145, HeLa-MaTu-ADR), 3,000 cells/well (NCI-H460, HeLa), 1,500 cells/well (Caco-2), or 1,000 cells/well (B16F10) in a 96-well multititer plate in 200 μL of their respective growth medium supplemented 10% fetal calf serum. After 24 hours, the cells of one plate (zero-point plate) were stained with crystal violet (see below), while the medium of the other plates was supplemented with the test substances in various concentrations (0 μM, as well as in the range of 0.0001-10 μM; the final concentration of the solvent dimethyl sulfoxide was adjusted to 0.1%) using a Hewlett-Packard HP D300 Digital Dispenser. The cells were incubated for 4 days in the presence of test substances. Cell proliferation was determined by staining the cells with crystal violet: the cells were fixed by adding 20 μl/measuring point of an 11% glutaric aldehyde solution for 15 minutes at room temperature. After three washing cycles of the fixed cells with water, the plates were dried at room temperature. The cells were stained by adding 100 μl/measuring point of a 0.1% crystal violet solution (pH 3.0). After three washing cycles of the stained cells with water, the plates were dried at room temperature. The dye was dissolved by adding 100 μl/measuring point of a 10% acetic acid solution. The extinction was determined by photometry at a wavelength of 595 nm. The change of cell number, in percent, was calculated by normalization of the measured values to the extinction values of the zero-point plate (=0%) and the extinction of the untreated ([…]) cells (=100%). The IC50 values (inhibitory concentration at 50% of maximal effect) were determined by means of a 4 parameter fit. A2780 human ovarian carcinoma cells (ECACC #93112519) and non-adherent MOLM-13 human acute myeloid leukemia cells (DSMZ ACC 554) were seeded at a density of 3,000 cell/well (A2780) or 5,000 cells/well (MOLM-13) in a 96-well multititer plate in 150 μL of growth medium supplemented 10% fetal calf serum. After 24 hours, cell viability of one plate (zero-point plate) was determined with the Cell Titre-Glo Luminescent Cell Viability Assay (Promega), while the medium of the other plates was supplemented with the test substances in various concentrations (0 μM, as well as in the range of 0.0001-10 μM; the final concentration of the solvent dimethyl sulfoxide was adjusted to 0.1%) using a Hewlett-Packard HP D300 Digital Dispenser. Cell viability was assessed after 72-hour exposure with the Cell Titre-Glo Luminescent Cell Viability Assay (Promega). IC50 values (inhibitory concentration at 50% of maximal effect) were determined by means of a 4 parameter fit on measurement data which were normalized to vehicle (DMSO) treated cells (=100%) and measurement readings taken immediately before compound exposure (=0%).

In experiment [1] the target is T1, human PTEFb (CDK9/Cyclin T1) (Homo sapiens, UniProt P50750).
T1 construct: purchased ProQinase, Freiburg, Germany
Nature of the experiment: Surface Plasmon Resonance PTEFb. It is filed as binding. Particulars: SPR, 37° C. The source says: 8. Surface Plasmon Resonance PTEFb
The term “surface plasmon resonance”, as used herein, refers to an optical phenomenon that allows for the analysis of the reversible associations of biological molecules in real time within a biosensor matrix, for example using the Biacore® system (GE Healthcare Biosciences, Uppsala, Sweden). Biacore® uses the optical properties of surface plasmon resonance (SPR) to detect alterations in the refractive index of a buffer, which changes as molecules in solution interact with the target immobilized on the surface. In brief, proteins are covalently bound to the dextran matrix at a known concentration and a ligand for the protein is injected through the dextran matrix. Near infrared light, directed onto the opposite side of the sensor chip surface is reflected and also induces an evanescent wave in the gold film, which in turn, causes an intensity dip in the reflected light at a particular angle known as the resonance angle. If the refractive index of the sensor chip surface is altered (e.g. by compound binding to the bound protein) a shift occurs in the resonance angle. This angle shift can be measured.
The term “KD”, as used herein, is intended to refer to the equilibrium dissociation constant of a particular compound/target protein complex.
The term “koff”, as used herein, is intended to refer to the off-rate, i.e. the dissociation rate constant of a particular compound/target protein complex.
The term “target residence time”, as used herein, is intended to refer to the inverse of the rate of dissociation rate constant (1/koff) of a particular compound/target protein complex.
The ability of the compounds according to the invention to bind human PTEFb may be determined using surface plasmon resonance (SPR). KD values and koff values may be measured using a Biacore® T200 instrument (GE Healthcare, Uppsala, Sweden).
For SPR measurements, recombinant human PTEFb (CDK9/Cyclin T1 recombinant human active protein kinase purchased from ProQinase, Freiburg, Germany) is immobilized using standard amine coupling (Johnsson B et al, Anal Biochem. 1991 Nov. 1; 198(2):268-77). Briefly, carboxymethylated dextran biosensor chips (CM7, GE Healthcare) are activated with N-ethyl-N′-(3-dimethylaminopropyl)-carbodiimide hydrochloride (EDC) and N-hydroxysuccinimide (NHS) according to the supplier's instructions. Human PTEFb is diluted in 1×HBS-EP+ (GE Healthcare) and injected on the activated chip surface. Subsequently, a 1:1 solution of 1 M ethanolamine-HCl (GE Healthcare) and 1×HBS-EP is injected to block unreacted groups, resulting in approximately 4000 response units (RU) of immobilized protein. A reference surface is generated by treatment with NHS-EDC and ethanolamine-HCl. Compounds are dissolved in 100% dimethylsulfoxide (DMSO, Sigma-Aldrich, Germany) to a concentration of 10 mM and subsequently diluted in running buffer (1×HBS-EP+pH 7.4 [generated from HBS-EP+ Buffer 10× (GE Healthcare): 0.1 M HEPES, 1.5 M NaCl, 30 mM EDTA and 0.5% v/v Surfactant P20], 1% v/v DMSO). For kinetic measurements, serial dilutions of compound (0.78 nM up to 25 nM) are injected over immobilized protein. Binding kinetics is measured at 37° C. with a flow rate of 100 μl/min in running buffer. Compound concentrations are injected for 70 s followed by a dissociation time of 1100 s. The resulting sensorgrams are double-referenced against the reference surface as well as against blank injections.
The double-referenced sensorgrams are fit to a simple reversible Langmuir 1:1 reaction mechanism as implemented in the Biacore® T200 evaluation software 2.0 (GE Healthcare). In cases were full compound dissociation has not occurred at the end of the dissociation phase, the Rmax parameter (response at saturation) is fit as local variable. In all other cases, Rmax is fit as global variable.

T1 sequence (P50750 whole entry): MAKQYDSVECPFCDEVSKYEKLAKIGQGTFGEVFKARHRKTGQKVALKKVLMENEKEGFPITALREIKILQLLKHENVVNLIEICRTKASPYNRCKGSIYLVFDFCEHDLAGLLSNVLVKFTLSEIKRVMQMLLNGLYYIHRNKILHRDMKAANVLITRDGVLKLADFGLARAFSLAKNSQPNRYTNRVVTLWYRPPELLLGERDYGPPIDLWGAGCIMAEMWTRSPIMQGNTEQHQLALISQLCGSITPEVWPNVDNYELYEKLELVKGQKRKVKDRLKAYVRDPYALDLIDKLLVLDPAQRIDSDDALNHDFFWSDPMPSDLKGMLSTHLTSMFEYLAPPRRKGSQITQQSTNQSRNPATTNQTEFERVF
T1 sequence (O60563 whole entry partner): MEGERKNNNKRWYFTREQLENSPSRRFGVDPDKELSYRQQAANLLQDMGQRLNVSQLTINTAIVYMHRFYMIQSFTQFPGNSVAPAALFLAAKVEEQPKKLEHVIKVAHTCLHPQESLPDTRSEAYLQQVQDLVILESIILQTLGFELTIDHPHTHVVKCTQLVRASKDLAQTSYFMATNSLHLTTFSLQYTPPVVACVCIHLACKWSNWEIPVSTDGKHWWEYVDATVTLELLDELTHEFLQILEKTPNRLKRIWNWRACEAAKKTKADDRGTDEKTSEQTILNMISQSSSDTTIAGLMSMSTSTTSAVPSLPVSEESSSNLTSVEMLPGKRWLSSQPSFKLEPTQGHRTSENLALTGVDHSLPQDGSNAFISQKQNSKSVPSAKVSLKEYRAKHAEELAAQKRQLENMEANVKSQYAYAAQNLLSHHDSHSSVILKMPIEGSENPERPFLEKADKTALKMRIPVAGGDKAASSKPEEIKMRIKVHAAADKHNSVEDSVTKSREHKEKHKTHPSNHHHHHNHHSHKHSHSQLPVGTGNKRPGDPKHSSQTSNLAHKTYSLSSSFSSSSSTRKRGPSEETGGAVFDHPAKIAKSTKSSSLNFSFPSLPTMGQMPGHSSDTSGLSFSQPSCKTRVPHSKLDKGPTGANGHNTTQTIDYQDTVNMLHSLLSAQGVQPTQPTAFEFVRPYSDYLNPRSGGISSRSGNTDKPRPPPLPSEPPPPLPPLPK

With `CS(=N)(=O)Cc1cc2nc(c1)OCCCCOc1cc(ccc1F)-c1cc(ncc1F)N2` (racemic) [Example 2, (rac)-3,20-difluoro-10-[(S-methylsulfonimidoyl)methyl]-13,18-dioxa-5,7,24-triazatetracyclo[17.3.1.1^2,6.1^8,12]pentacosa-1(23),2(25),3,5,8(24),9,11,19,21-nonaene], the IC50 with NCI-H460 cells came to 157 nM. In addition, the residence time in experiment [1] (1/koff, * = arithmetic means, read-out: Target residence time) amounted to 75 min. Besides, in experiment [1] (* = arithmetic means of more than one value, read-out: Equilibrium dissociation constant KD), the Kd was found to be 1.2 nM. Also, the koff in experiment [1] (* = arithmetic means, < = below what is resolvable, read-out: Dissociation rate constant koff) amounted to 0.00022 s⁻¹.
